Results from patent publication US20130064859A1, “COMBINATORIAL VITAMIN D AND PROBIOTIC THERAPY FOR INFLAMMATORY BOWEL DISEASE” (priority 2011, published 2013).

How the values were obtained:
CD4+Foxp3+ T cells = assay: mouse DC / CD4+ T cell co-culture, Foxp3+ Treg induction; assay type: cell-based, mice; conditions: FIG. 6B
Description: In a particular example of the method of paragraph, mouse dendritic cells (DCs) are treated with PSA or PSA and vitamin D metabolite for 16-18 hrs, washed and co-cultured with naïve CD4+ T cells. After 4 days, cells were collected and stained for Foxp3. Percentage of Foxp3+ CD4+ T cells were determined by flow cytometry.
(§1) (A) Mouse DCs were stimulated with PSA (or PBS control), and Cyp27b1 transcript levels were measured by qRT-PCR. PSA induces the expression of the vitamin D-activating enzyme from WT, but not TLR2−/− DCs. (B) Mouse DCs were treated with PSA, washed and co-cultured with naïve CD4+ T cells. After 4 days, PSA increased Foxp3+ Treg proportions (see % in box). The vitamin D metabolite 25D augmented PSA-induced Tregs. (C) Human monocytes were treated with PSA or vehicle, washed and co-cultured with CD4+ T cells from PBMCs of the same donor. The MFI for Foxp3 among CD4+CD25+ T cells is shown with or without TGFβ. Collectively, we propose a model whereby PSA signals through TLR2 on DCs to induce expression of Cyp27b1, which converts 25D to 1,25D. The vitamin D receptor (VDR) in T cells responds to 1,25 D, and along with other PSA-specific signals, mediated the development of Treg cells (see diagram in FIG. 1).
(§2) Vitamin D enhances PSA-mediated induction of mouse and human Tregs. […]

[1] = test system: Foxp3 expression in human Tregs; assay: human monocyte / CD4+ T cell co-culture, Foxp3 MFI; assay type: cell-based; conditions: FIG. 6C
Description: In a particular example of the method of paragraph, in vitro, human monocytes are treated with PSA or vehicle for 16-18 hrs, washed and co-cultured with CD4+ T cells from PBMCs of the same donor with or without TGFb. After 2 days, cells were collected and stained for Foxp3. MFI of Foxp3 among CD4+CD25+ T cells was determined by flow cytometry.
as §1, §2

[2] = test system: proliferation of CD4+CD25- responder T cells; assay: in vitro suppression assay with CD4+CD25+ Tregs from MLNs of treated mice; assay type: cell-based; conditions: Tregs from PSA fed mice (TNBS+PSA) vs untreated animals, FIG. 2B
Description: (§3) (A) Mice were treated with PSA or PBS. Analysis of the percentage of Foxp3+ cells within the CD4+CD25+ population in the MLNs is shown, indicated by the numbers in the top right quadrant. (B) CD4+CD25+ cells were purified from the MLNs of colitic PBS or PSA-treated mice and incubated with CFSE-pulsed CD4+CD25-responder cells in an in vitro suppression assay. Numbers indicate the percentage of cells undergoing at least one cellular division at 2 different ratios of effector T cells (Teff) and regulatory T cells (Treg). Top panels show results from healthy mice (−TNBS). (C) Disease scores for mice pre- and post-treated with PSA during TNBS colitis were assessed by a blinded pathologist. P values determined by a two-tailed Mann-Whitney U-test. **p value of <0.01. (D) Colons from mice were fixed, sectioned and stained with H&E to determine disease severity. Representative sections are shown.
(§4) Here, we present data from the TNBS model, representative of results similar to the T cell transfer model. […] During protection from colitis (TNBS+PSA), PSA increases in-the percentage of Foxp3+ cells within the CD4+CD25+ compartment of the MLNs. […] The suppressive capacity of Tregs during PSA-mediated protection from intestinal inflammation was determined by in vitro suppression assays.

TNBS colitis = assay: TNBS experimental colitis in mice treated with PSA; assay type: in vivo; conditions: for IL-10 expression in MLNs (qRT-PCR) / IL-17 levels in MLNs (qRT-PCR): FIG. 3C
Description: as §3
(A) C57B1/6 WT or TLR2−/− animals were gavaged with purified PSA (or PBS) prior to TNBS administration. 5-6 days after onset of TNBS colitis, colons of animals were fixed, sectioned and H&E stained. Representative histological sections are shown. […] Each symbol represents a separate animal. *p value of <0.05. NS, not significant. (C) RNA was extracted from the MLNs of indicated mice either treated with PBS or PSA, and the expression levels of IL-10 and IL-17A were assayed by qRT-PCR. (D) Percentages of CD4+CD25+Foxp3+ T cells in the MLNs of TLR2−/−mice treated with PBS or PSA. Plots are gated on CD4+ T cells. Note: PSA increases CD4+CD25+Foxp3+ Treg proportions in WT mice by ˜25%.
B. fragilis induces Tregs that prevent and cure experimental IBD. Maintenance of homeostasis toward the intestinal microbial milieu is critical to the preservation of health, and defects in mucosal tolerance lead to disorders such as IBD. In animal models of IBD, intestinal inflammation is suppressed by various subsets of regulatory T cells (Tregs). Tregs emerge from the thymus and are marked by expression of CD4, CD25 and the transcription factor Foxp3 (Forkhead Box transcription factor for Treg differentiation). We have recently reported that the prominent human commensal, B. fragilis, directs the development of Foxp3+ Tregs in the gut during protection from experimental colitis in animal models. […] The Mazmanian laboratory employs 2 models of experimental colitis: 1) the T cell transfer model whereby various T cell subsets are transferred into RAG−/− animals allowing for the functional study of both pro- and anti-inflammatory T cells; 2) the TNBS (2,4,6-trinitrobenzene sulfonic acid) model, where rectal treatment of animals with an immunogenic chemical results in gut inflammation.
as §4
To examine if PSA can prevent and cure established colitis, animals were induced for TNBS colitis, and groups were either treated with vehicle (TNBS+PBS) or PSA either: 1) prior to disease induction (pre-TNBS+PSA) or 2) following rectal TNBS administration (post-TNBS+PSA).
PSA protection from experimental IBD requires TLR2 signaling. Multiple studies have implicated TLR signaling by innate immune cells during inflammatory disease. […] Wild-type (WT) or TLR2−/− animals were orally treated with PSA or PBS prior to induction of TNBS colitis. […] In contrast, TLR2−/− mice treated with PSA had marked inflammation including thickening of the mucosa, infiltrating leukocytes and crypt loss (FIG. 3A). […] As previously reported, WT animals were protected from colitis by PSA.

Cyp27b1 = assay: qRT-PCR of Cyp27b1 in bone marrow-derived dendritic cells treated with PSA; assay type: cell-based, mice; conditions: FIG. 6A
Description: as §1
Vitamin D enhances PSA-mediated induction of mouse and human Tregs. As outlined above, the ability of PSA to protect against IBD in mice involves the gut-specific conversion of CD4+ cell into IL-10-secreting Foxp3+ Tregs. We hypothesize that vitamin D may play a pivotal role in this process, given our novel finding that PSA induces the vitamin D-activating machinery in mice (see FIG. 5C). […]

[3] = PSA following the onset of disease, data not shown

## 25-hydroxyvitamin D [25D, reference compound]
CD4+Foxp3+ T cells; co-treatment of WT BMDCs with PSA and 25D
  effect on PSA-induced increase of CD4+Foxp3+ T cells: further enhanced

## polysaccharide A [PSA]
[1]; human monocytes treated with purified PSA or vehicle
  Foxp3 expression in human Tregs (MFI among CD4+CD25+ T cells): promotes Foxp3 expression
[2]
  suppression of T cell proliferation by Tregs from MLNs: suppressed T cell proliferation to a significantly higher level
TNBS colitis; PSA following rectal TNBS administration (post-TNBS+PSA)
  colitis disease score: prevented the development of disease with equal efficacy
TNBS colitis; [3]
  Foxp3 expression by gut CD4+ T cells: increased
  IL-10 expression by gut CD4+ T cells: increased
TNBS colitis; PSA prior to disease induction (pre-TNBS+PSA)
  colitis disease score: prevented the development of disease with equal efficacy
TNBS colitis; PSA-treated vs PBS or non-colitic animals, data not shown
  absolute number of CD4+CD25+Foxp3+ cells in the MLNs: significantly higher
TNBS colitis; TLR2-/- animals
  IL-10 expression in MLNs (qRT-PCR): no longer up-regulated
TNBS colitis; TLR2-/- animals, oral PSA prior to TNBS vs PBS, FIG. 3B
  protection from colitis (colitis score): not protected
TNBS colitis; TLR2-/- animals, relative to PBS controls, FIG. 3D
  percentage of CD4+Foxp3+ Tregs: no differences
TNBS colitis; TLR2-/- mice, PSA compared to PBS
  IL-17 levels in MLNs (qRT-PCR): increased
TNBS colitis; TNBS+PSA vs TNBS+PBS, FIG. 2A
  percentage of Foxp3+ cells within the CD4+CD25+ compartment of the MLNs: increases
TNBS colitis; WT animals
  IL-10 expression in MLNs (qRT-PCR): induced
  IL-17 levels in MLNs (qRT-PCR): Suppression
TNBS colitis; WT animals, oral PSA prior to TNBS, FIG. 3A/B
  protection from colitis (histopathology, colitis score): protected from disease
TNBS colitis; WT mice, MLNs, FIG. 3 note
  increase of CD4+CD25+Foxp3+ Treg proportions: ~25%
TNBS colitis; during both protection and cure of colitis, data not shown
  pro-inflammatory Th17 cells: significant decrease
Cyp27b1; DCs from TLR2-/- mice
  induction of Cyp27b1 expression: greatly diminished
Cyp27b1; WT BMDC, PSA vs PBS control
  induction of Cyp27b1 expression: 5 fold
CD4+Foxp3+ T cells; WT BMDCs treated with PSA, over media controls
  proportions of CD4+Foxp3+ T cells in culture: increases

## TGFβ [reference compound]
[1]; co-culture with or without TGFβ
  effect on PSA-induced Tregs: does not further enhance
